Source: publication PMC10860121 (ACS infectious diseases, 2023)
Where two headings read alike, the source gives them in different places.

Key:
[1] = system: Chloroquine-sensitive NF54 P. falciparum isolate; assay: In vitro antiplasmodial activity, NF54; format: cell-based, Plasmodium falciparum; settings: for IC50: Plasmodium falciparum
[2] = system: P. falciparum TM90C2B; format: cell-based; settings: Plasmodium falciparum, read-out: P. falciparum IC50 TM90C2B
[3] = system: P. falciparum K1; assay: In vitro antiplasmodial activity, K1, 72 h [3H]hypoxanthine incorporation; format: cell-based; settings: Plasmodium falciparum, K1, read-out: P. falciparum IC50 K1
[4] = system: P. falciparum 7G8; assay: In vitro antiplasmodial activity, 7G8, 72 h [3H]hypoxanthine incorporation; format: cell-based; settings: Plasmodium falciparum, 7G8, read-out: P. falciparum IC50 7G8
[5] = system: P. falciparum Dd2; assay: In vitro antiplasmodial activity, Dd2, 72 h [3H]hypoxanthine incorporation; format: cell-based; settings: Plasmodium falciparum, DD2, read-out: P. falciparum IC50 Dd2
[6] = system: P. falciparum RF12; assay: In vitro antiplasmodial activity, RF12, 72 h [3H]hypoxanthine incorporation; format: cell-based; settings: Plasmodium falciparum, read-out: P. falciparum IC50 RF12
[7] = Chromatographic LogD7.4; format: physicochemical; settings: gradient HPLC, Phenomenex Synergi Hydro-RP column, pH 7.4
[8] = In vitro intrinsic clearance in mouse liver microsomes; format: in vitro ADME
[9] = Stability in 0.1 M PBS pH 7.4; format: physicochemical; settings: 7 h incubation period
[10] = In vitro intrinsic clearance in human liver microsomes; format: in vitro ADME; settings: for microsomal CLint: human, liver microsomes, h CLint
[11] = Stability in P. falciparum activity test medium; format: physicochemical; settings: for half-life at 1 μM: P. falciparum in vitro activity test medium
[12] = system: GFP MRA-865 strain of Plasmodium berghei; assay: In vivo antimalarial activity in P. berghei-infected mice; settings: female NMRI mice, four 50 mg/kg daily oral doses; untreated control 52.3 ± 2.6%
[13] = In vivo pharmacokinetics in mice; design: species or system male Swiss outbred mice
[14] = NF54, read-out: P. falciparum IC50, NF54, mean from n ≥ 2

Row | Compound | IC50 [1, 14] [nM] | chromatographic logD [7] | microsomal CLint [8] [µL/min/mg] | loss in 0.1 M PBS pH 7.4 [9] [%] | microsomal CLint [10] [µL/min/mg] | IC50 [2] [nM] | IC50 [3] [nM] | IC50 [4] [nM] | IC50 [5] [nM] | IC50 [6] [nM] | half-life at 1 μM [11] [h] | further results
1 | CCN(CC)CCCC(C)Nc1ccnc2cc(Cl)ccc12 (stereo not shown) [Chloroquine, chloroquine] |  |  |  |  |  | 160 ± 22 | 270 ± 41 | 57 ± 0.9 | 180 ± 21 | 350 |  | IC50 ([1]; NF54, read-out: P. falciparum IC50 NF54): 9.1 ± 1.5 nM
2 | CCOC(=O)c1ccc2c(c1)C(=O)CCc1ccccc1C(=O)N2 [Compound 18, Ethyl 6,13-Dioxo-6,11,12,13-tetrahydro-5H-dibenzo-[b,g]azonine-2-carboxylate] | 41 | 2.6 | 910 |  | 100 | 1000 | 30 ± 7.5 | 32 ± 9.9 | 30 ± 7.2 | 11 ± 0.86 |  | IC50 ([1]; NF54, read-out: P. falciparum IC50 NF54, Mean ± SD, n ≥ 2, 72 h [3H]hypoxanthine incorporation assay): 41 ± 7.4 nM; fold more potent than 2 (antiplasmodial) ([1]; relative to compound 2): roughly 5 fold
3 | O=C1Nc2cc(F)cc(F)c2C(=O)CCc2ccccc21 [Compound 28, 1,3-Difluoro-11,12-dihydro-5H-dibenzo[b,g]azonine-6,13-dione] | 7 | 2.5 | 58 |  | 17 |  |  |  |  |  | 4.7 | in vitro selectivity index ([1]; antiplasmodial selectivity, L6 cytotoxicity vs P. falciparum): > 10,000; parasitemia [12]: 49.0 ± 4.3%; clearance ([13]; male, Swiss outbred, mouse, plasma, iv): 147 mL/min/kg; Cmax ([13]; male, Swiss outbred, mouse, plasma, po): ~500 ng/mL; adverse reactions or compound-related side effects ([13]; mice, 24 h post-dose sampling period, IV and PO): No adverse reactions or compound-related side effects were observed

More lines, main results first:

Row | IC50 [1, 14] [nM] | chromatographic logD [7] | microsomal CLint [8] [µL/min/mg] | loss in 0.1 M PBS pH 7.4 [9] [%] | microsomal CLint [10] [µL/min/mg] | Compound | IC50 [2] [nM] | IC50 [3] [nM] | IC50 [4] [nM] | IC50 [5] [nM] | IC50 [6] [nM] | half-life at 1 μM [11] [h] | further results
4 | 190 | 1.9 | 39 | < 5 | 20 to 40 | O=C1Nc2ccccc2C(=O)CCc2ccccc21 [Compound 2, 11,12-dihydro-5H-dibenzo[b,g]azonine-6,13-dione] |  |  |  |  |  |  | h CLint [10]: 20 μL/min/mg protein; Apparent degradation t1/2, In Vitro Assay Medium ([11]; 1 μM, 37 °C, 6 h incubation, parentheses 95% confidence interval): No loss detected over 6 h
5 | 130 | 2.1 | 110 | < 5 | 11 | O=C1Nc2ccccc2C(=O)CCc2cc(F)ccc21 [Compound 32, 9-Fluoro-11,12-dihydro-5H-dibenzo[b,g]azonine-6,13-dione] |  |  |  |  |  | 25 | 
